Reference: patent US11478008B2, “Formulations comprising ratfish liver oil or a product of an enzymatic or chemical glycerolysis processing of ratfish liver oil and supercritical rosemary extract and uses thereof” (UNIVERSIDAD AUTÓNOMA DE MADRID, priority 2016, dated 2022)

Tested on: human pancreatic cancer cell cultures (line MiaPaca-2)
Assay: MTT cell viability assay, human pancreatic cancer cells MiaPaca-2
Assay type: cell-based
Conditions: 1%
Method: The antiproliferative activity of the lipid systems (RLO, RLO+MO and GP), formulations with incorporated SRE (RLO+MO+9% SRE and GP+9% SRE) and (digested and non-digested) non-delivered SRE was evaluated in human pancreatic cancer cell cultures (line MiaPaca-2) by means of the MTT method.
Three independent experiments were performed with different cell strains and on different days. The trend observed in terms of the effect of treatments on cell viability was similar in the 3 experiments.
The parameter used to assess the effect of a compound on cell viability is the mean inhibitory concentration (IC50), which is the product concentration inhibiting cell viability by 50%, such that the lower the IC50 of a compound is, the greater its effect will be.

`O=C1CCCC1` [cyclopentanone] was tested, and the “viability of treated cells” value was “did not change”.
